Source: patent US9409905B2, “Antibacterial compounds and methods for use” (PTC THERAPEUTICS, INC., priority 2011, dated 2016)
Values after ≈ are worked out from the molar mass of the structure shown.

Key:
[1] = tested on: Pseudomonas aeruginosa (P. aeruginosa) 27853; assay: Antibacterial activity, MIC (Table 5); format: cell-based; conditions: P. aeruginosa 27853, read-out: MIC, 27853
In short: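 Compounds are serially diluted in broth and inoculated with the organism. Growth is then inspected macroscopically, and the lowest concentration showing none is taken as the MIC (μg/mL).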

[2] = tested on: Klebsiella pneumoniae (K. pneumoniae) 35657; assay: Antibacterial activity, MIC (Table 4); format: cell-based; conditions: K. pneumoniae 35657, read-out: MIC, 35657
In short: (§1)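 MIC in μg/mL by microbroth dilution, scored as the lowest level that suppresses visible growth.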

[3] = tested on: Acinetobacter baumannii (A. baumannii) BAA747; assay: Antibacterial activity, MIC (Table 4); format: cell-based; conditions: A. baumannii BAA747, read-out: MIC, BAA747
In short: as §1

[4] = tested on: E. coli LZ3111; assay: Antibacterial activity, MIC, quinolone resistant strain (Table 2); format: cell-based; conditions: Escherichia coli, LZ3111, read-out: MIC LZ3111
In short: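 Strain carries mutations conferring high-level quinolone resistance; tested by microbroth dilution, MIC recorded in μg/mL as lowest concentration preventing visible growth.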

[5] = tested on: A. baumannii MXX2240; assay: Antibacterial activity, MIC, resistant strain (Table 4); format: cell-based; conditions: Acinetobacter baumannii, MXX2240; resistant A. baumannii MMX2240, multi-drug resistant clinical isolate; read-out: MIC, MMX2240
In short: as §1

[6] = tested on: K. pneumoniae MXX1232; assay: as above; format: cell-based; conditions: Klebsiella pneumoniae, MXX1232; resistant K. pneumoniae MMX1232, multi-drug resistant clinical isolate; read-out: MIC, MMX1232
In short: as §1

[7] = tested on: Staphylococcus aureus (S. aureus) 29213; assay: Antibacterial activity, microbroth dilution MIC (Table 1); format: cell-based; conditions: microbroth dilution, Gram-positive S. aureus 29213, read-out: MIC, 29213
In short: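 Microbroth dilution was used. MIC, in μg/mL, is the lowest drug concentration preventing macroscopically visible growth under the test conditions.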

[8] = tested on: Escherichia coli (E. coli) BAS849; assay: as above; format: cell-based; conditions: microbroth dilution, super sensitive Gram-negative E. coli BAS849, read-out: MIC, BAS849
In short: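 Potency is reported as minimum inhibitory concentration in μg/mL, determined by broth microdilution as the lowest level of compound that stops growth visible to the eye.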

[9] = tested on: E. coli 25922; assay: as above; format: cell-based, Escherichia coli; conditions: Escherichia coli; microbroth dilution; control Gram-negative E. coli 25922 strain; read-out: MIC, 25922
In short: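 Values are MICs (μg/mL): the smallest drug amount at which macroscopically visible bacterial growth is absent under assay conditions, from a microdilution method in broth.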

Row | SMILES | MIC [1] | MIC [2] | MIC [3] | MIC [4] | MIC [5] | MIC [6] | MIC [7] | MIC [8] | MIC [9]
1 | CCc1cc(C(=O)O)c(=O)[nH]c1-c1ccc2c(c1)cc(CN1CCN(C)CC1)n2C [Cpd 140, 5-ethyl-6-(1-methyl-2-((4-methylpiperazin-1-yl)methyl)-1H-indol-5-yl)-2-oxo-1,2-dihydropyridine-3-carboxylic acid] | 12.5 to 150 µg/mL (≈ 30.6 to 367 µM) | 1 to 3.5 µg/mL (≈ 2.45 to 8.57 µM) | 3.5 to 12.5 µg/mL (≈ 8.57 to 30.6 µM) | 12.5 to 150 µg/mL (≈ 30.6 to 367 µM) | 12.5 to 150 µg/mL (≈ 30.6 to 367 µM) | 12.5 to 150 µg/mL (≈ 30.6 to 367 µM) | 12.5 to 150 µg/mL (≈ 30.6 to 367 µM) | < 1 µg/mL | 1 to 3.5 µg/mL (≈ 2.45 to 8.57 µM)
2 | CCCc1ccc2cc(-c3[nH]c(=O)c(C(=O)O)c(O)c3CC)[nH]c2c1 [Cpd 384, 5-ethyl-4-hydroxy-2-oxo-6-(6-propyl-1H-indol-2-yl)-1,2-dihydropyridine-3-carboxylic acid] | 12.5 to 150 µg/mL (≈ 36.7 to 441 µM) | 12.5 to 150 µg/mL (≈ 36.7 to 441 µM) | 12.5 to 150 µg/mL (≈ 36.7 to 441 µM) | 12.5 to 150 µg/mL (≈ 36.7 to 441 µM) | 12.5 to 150 µg/mL (≈ 36.7 to 441 µM) | 12.5 to 150 µg/mL (≈ 36.7 to 441 µM) | 12.5 to 150 µg/mL (≈ 36.7 to 441 µM) | < 1 µg/mL | 12.5 to 150 µg/mL (≈ 36.7 to 441 µM)
3 | CCc1ccc2cc(-c3[nH]c(=O)c(C(=O)O)c(O)c3CC)[nH]c2c1 [Cpd 382, 5-ethyl-6-(6-ethyl-1H-indol-2-yl)-4-hydroxy-2-oxo-1,2-dihydropyridine-3-carboxylic acid] | 12.5 to 150 µg/mL (≈ 38.3 to 460 µM) | 12.5 to 150 µg/mL (≈ 38.3 to 460 µM) | 12.5 to 150 µg/mL (≈ 38.3 to 460 µM) | 12.5 to 150 µg/mL (≈ 38.3 to 460 µM) | 12.5 to 150 µg/mL (≈ 38.3 to 460 µM) | 12.5 to 150 µg/mL (≈ 38.3 to 460 µM) | 3.5 to 12.5 µg/mL (≈ 10.7 to 38.3 µM) | < 1 µg/mL | 12.5 to 150 µg/mL (≈ 38.3 to 460 µM)
4 | CCc1cc(C(=O)O)c(=O)[nH]c1-c1ccc2c(c1)cc(CN(CC)CC)n2C [Cpd 123, 6-(2-((diethylamino)methyl)-1-methyl-1H-indol-5-yl)-5-ethyl-2-oxo-1,2-dihydropyridine-3-carboxylic acid] | 12.5 to 150 µg/mL (≈ 32.8 to 393 µM) | < 1 µg/mL | 1 to 3.5 µg/mL (≈ 2.62 to 9.17 µM) | 12.5 to 150 µg/mL (≈ 32.8 to 393 µM) | 12.5 to 150 µg/mL (≈ 32.8 to 393 µM) | 12.5 to 150 µg/mL (≈ 32.8 to 393 µM) | 12.5 to 150 µg/mL (≈ 32.8 to 393 µM) | < 1 µg/mL | < 1 µg/mL
5 | CCCc1ccc2cc(-c3[nH]c(=O)c(C(=O)O)c(O)c3CC)n(C)c2c1 [Cpd 410, 5-ethyl-4-hydroxy-6-(1-methyl-6-propyl-1H-indol-2-yl)-2-oxo-1,2-dihydropyridine-3-carboxylic acid] | 12.5 to 150 µg/mL (≈ 35.3 to 423 µM) | 12.5 to 150 µg/mL (≈ 35.3 to 423 µM) | 12.5 to 150 µg/mL (≈ 35.3 to 423 µM) | 12.5 to 150 µg/mL (≈ 35.3 to 423 µM) | 12.5 to 150 µg/mL (≈ 35.3 to 423 µM) | 12.5 to 150 µg/mL (≈ 35.3 to 423 µM) | 3.5 to 12.5 µg/mL (≈ 9.88 to 35.3 µM) | 1 to 3.5 µg/mL (≈ 2.82 to 9.88 µM) | 12.5 to 150 µg/mL (≈ 35.3 to 423 µM)
6 | CCCNCc1cc2cc(-c3[nH]c(=O)c(C(=O)O)c(O)c3C)ccc2n1C [Cpd 352, 4-hydroxy-5-methyl-6-(1-methyl-2-((propylamino)methyl)-1H-indol-5-yl)-2-oxo-1,2-dihydropyridine-3-carboxylic acid] | 12.5 to 150 µg/mL (≈ 33.8 to 406 µM) | 1 to 3.5 µg/mL (≈ 2.71 to 9.47 µM) | 3.5 to 12.5 µg/mL (≈ 9.47 to 33.8 µM) | < 1 µg/mL | 1 to 3.5 µg/mL (≈ 2.71 to 9.47 µM) | 12.5 to 150 µg/mL (≈ 33.8 to 406 µM) | 12.5 to 150 µg/mL (≈ 33.8 to 406 µM) | < 1 µg/mL | 3.5 to 12.5 µg/mL (≈ 9.47 to 33.8 µM)
7 | CCc1c(-c2ccc3c4c([nH]c3c2)CNCC4)[nH]c(=O)c(C(=O)O)c1O [Cpd 445, 5-ethyl-4-hydroxy-2-oxo-6-(2,3,4,9-tetrahydro-1H-pyrido[3,4-b]indol-7-yl)-1,2-dihydropyridine-3-carboxylic acid] | 12.5 to 150 µg/mL (≈ 35.4 to 424 µM) | 3.5 to 12.5 µg/mL (≈ 9.9 to 35.4 µM) | 12.5 to 150 µg/mL (≈ 35.4 to 424 µM) | 12.5 to 150 µg/mL (≈ 35.4 to 424 µM) | 12.5 to 150 µg/mL (≈ 35.4 to 424 µM) | 12.5 to 150 µg/mL (≈ 35.4 to 424 µM) | 12.5 to 150 µg/mL (≈ 35.4 to 424 µM) | 3.5 to 12.5 µg/mL (≈ 9.9 to 35.4 µM) | 12.5 to 150 µg/mL (≈ 35.4 to 424 µM)
8 | CCc1c(-c2cc3ccc(OC)cc3[nH]2)[nH]c(=O)c(C(=O)O)c1O [Cpd 379, 5-ethyl-4-hydroxy-6-(6-methoxy-1H-indol-2-yl)-2-oxo-1,2-dihydropyridine-3-carboxylic acid] | 12.5 to 150 µg/mL (≈ 38.1 to 457 µM) | 12.5 to 150 µg/mL (≈ 38.1 to 457 µM) | 12.5 to 150 µg/mL (≈ 38.1 to 457 µM) | 12.5 to 150 µg/mL (≈ 38.1 to 457 µM) | 12.5 to 150 µg/mL (≈ 38.1 to 457 µM) | 12.5 to 150 µg/mL (≈ 38.1 to 457 µM) | 12.5 to 150 µg/mL (≈ 38.1 to 457 µM) | 3.5 to 12.5 µg/mL (≈ 10.7 to 38.1 µM) | 12.5 to 150 µg/mL (≈ 38.1 to 457 µM)
9 | Cc1c(-c2ccc3c(c2)cc(CNCCO)n3C)[nH]c(=O)c(C(=O)O)c1O [Cpd 350, 4-hydroxy-6-(2-((2-hydroxyethylamino)methyl)-1-methyl-1H-indol-5-yl)-5-methyl-2-oxo-1,2-dihydropyridine-3-carboxylic acid] | 12.5 to 150 µg/mL (≈ 33.7 to 404 µM) | 12.5 to 150 µg/mL (≈ 33.7 to 404 µM) | 12.5 to 150 µg/mL (≈ 33.7 to 404 µM) | 3.5 to 12.5 µg/mL (≈ 9.42 to 33.7 µM) | 12.5 to 150 µg/mL (≈ 33.7 to 404 µM) | 12.5 to 150 µg/mL (≈ 33.7 to 404 µM) | 12.5 to 150 µg/mL (≈ 33.7 to 404 µM) | 3.5 to 12.5 µg/mL (≈ 9.42 to 33.7 µM) | 12.5 to 150 µg/mL (≈ 33.7 to 404 µM)
